{"source": "paper PMC8452301", "about": "(CPT: Pharmacometrics & Systems Pharmacology, 2021)", "key": {"[1]": {"assay": "Physicochemical input parameters", "conditions": "high solubility–high permeability"}, "[2]": {"conditions": "cited from earlier work"}, "[3]": {"format": "in vivo, human", "conditions": "observed"}, "[4]": {"conditions": "cited from earlier work", "remark": "listed apart in the source"}, "[5]": {"conditions": "cited from earlier work", "remark": "listed apart in the source"}, "[6]": {"conditions": "4-mg single dose, geometric mean, observed N=7"}, "[7]": {"conditions": "4-mg single dose, mean, observed N=7"}, "[8]": {"conditions": "4-mg single dose, median, observed N=7"}, "[9]": {"conditions": "4-mg, q.d. dosing, geometric mean, observed N=5"}, "[10]": {"conditions": "4-mg, q.d. dosing, mean, observed N=5"}, "[11]": {"conditions": "9-mg q.d. dosing, geometric mean, observed N=6"}, "[12]": {"conditions": "9-mg q.d. dosing, mean, observed N=6"}, "[13]": {"conditions": "9-mg q.d. dosing, median, observed N=6"}, "[14]": {"conditions": "9-mg single dose, geometric mean, observed N=9"}, "[15]": {"conditions": "9-mg single dose, mean, observed N=9"}, "[16]": {"conditions": "9-mg single dose, median, observed N=9"}, "[17]": {"conditions": "4-mg single dose, no inhibitor, Cohort A n=17, mean"}, "[18]": {"conditions": "4-mg with 200-mg q.d. itraconazole, Cohort C, geometric mean"}, "[19]": {"conditions": "4-mg with 200-mg q.d. itraconazole, Cohort C, mean"}, "[20]": {"conditions": "4-mg with 400-mg q.d. fluconazole, Cohort B, geometric mean"}, "[21]": {"conditions": "4-mg with 400-mg q.d. fluconazole, Cohort B, mean"}}, "note": "Like-named read-outs stand apart in the source and are kept apart here."}
{"smiles": "COc1cc(OC)cc(N(CCNC(C)C)c2ccc3ncc(-c4cnn(C)c4)nc3c2)c1", "note": "[erdafitinib]", "values": [{"measurement": "Biopharmaceutics Classification System class", "setting": "[1]", "value": "Class 1"}, {"measurement": "AUC0–72", "setting": "[2]; [6]", "value": 6022, "unit": "ng·h/mL"}, {"measurement": "Cmax", "setting": "[2]; [6]", "value": 163, "unit": "ng/mL"}, {"measurement": "AUC0–72", "setting": "[2]; [7]", "value": 6743, "unit": "ng·h/mL"}, {"measurement": "Cmax", "setting": "[2]; [7]", "value": 182, "unit": "ng/mL"}, {"measurement": "AUC0–72", "setting": "[2]; [8]", "value": 6360, "unit": "ng·h/mL"}, {"measurement": "Cmax", "setting": "[2]; [8]", "value": 173, "unit": "ng/mL"}, {"measurement": "AUCtau", "setting": "[2]; [9]", "value": "12,064 ng·h/ml"}, {"measurement": "Cmax", "setting": "[2]; [9]", "value": 630, "unit": "ng/mL"}, {"measurement": "AUCtau", "setting": "[2]; [10]", "value": "13,516 ng·h/ml"}, {"measurement": "Cmax", "setting": "[2]; [10]", "value": 675, "unit": "ng/mL"}, {"measurement": "Cmax", "setting": "[2]; 4-mg, q.d. dosing, median, observed N=5", "value": 569, "unit": "ng/mL"}, {"measurement": "AUCtau", "setting": "[2]; [11]", "value": "36,608 ng·h/ml"}, {"measurement": "Cmax", "setting": "[2]; [11]", "value": 1911, "unit": "ng/mL"}, {"measurement": "AUCtau", "setting": "[2]; [12]", "value": "39,587 ng·h/ml"}, {"measurement": "Cmax", "setting": "[2]; [12]", "value": 2018, "unit": "ng/mL"}, {"measurement": "AUCtau", "setting": "[2]; [13]", "value": "30,594 ng·h/ml"}, {"measurement": "Cmax", "setting": "[2]; [13]", "value": 1765, "unit": "ng/mL"}, {"measurement": "AUC0–72", "setting": "[2]; [14]", "value": "15,091 ng·h/ml"}, {"measurement": "Cmax", "setting": "[2]; [14]", "value": 390, "unit": "ng/mL"}, {"measurement": "AUC0–72", "setting": "[2]; [15]", "value": "17,564 ng·h/ml"}, {"measurement": "Cmax", "setting": "[2]; [15]", "value": 431, "unit": "ng/mL"}, {"measurement": "AUC0–72", "setting": "[2]; [16]", "value": "16,053 ng·h/ml"}, {"measurement": "Cmax", "setting": "[2]; [16]", "value": 389, "unit": "ng/mL"}, {"measurement": "difference in total exposure, patients with cancer versus healthy subjects", "setting": "[3]", "value": "~ 1.4 fold"}, {"measurement": "AUCinf", "setting": "[4]; 4-mg single dose, no inhibitor, Cohort A n=17, geometric mean", "value": 8777, "unit": "ng·h/mL"}, {"measurement": "AUCinf", "setting": "[4]; [17]", "value": 9145, "unit": "ng·h/mL"}, {"measurement": "Cmax", "setting": "[4]; [17]", "value": 138, "unit": "ng/mL"}, {"measurement": "AUCinf", "setting": "[4]; [18]", "value": "11,785 ng·h/ml"}, {"measurement": "Cmax", "setting": "[4]; [18]", "value": 140, "unit": "ng/mL"}, {"measurement": "AUCinf", "setting": "[4]; [19]", "value": "12,228 ng·h/ml"}, {"measurement": "Cmax", "setting": "[4]; [19]", "value": 145, "unit": "ng/mL"}, {"measurement": "AUCinf", "setting": "[4]; [20]", "value": "13,060 ng·h/ml"}, {"measurement": "Cmax", "setting": "[4]; [20]", "value": 162, "unit": "ng/mL"}, {"measurement": "AUCinf", "setting": "[4]; [21]", "value": "14,233 ng·h/ml"}, {"measurement": "Cmax", "setting": "[4]; [21]", "value": 177, "unit": "ng/mL"}, {"measurement": "unchanged drug recovered in feces", "setting": "[5]; over ~ 16 days", "value": 17, "unit": "%"}, {"measurement": "unchanged drug recovered in feces", "setting": "[5]; within the first 3 days", "value": "< 5 % of the dose"}]}
